# Assay results: patent US20010041743A1, “Use of cyclopentenone derivatives for bone and periodontal regeneration” (priority 2000, published 2001)
# Entries after “also recorded” stand apart in the source; their conditions may differ.
# Assays:
# [1] = test system: transcortical defects in rat femurs; experiment: Titanium enclosure model of bone regeneration (histomorphometry of cortical defect); format: in vivo; conditions: for percentage of new bone formation in cortical defect area (bone growth): rat femur, control value 40%
# Procedure: (§1) In one study, bone regeneration and gene expression was assayed using a titanium enclosure model, as described in Example 1 (FIG. 1). Briefly, transcortical defects were created surgically in rat femurs. A collagen sponge, loaded with a varying concentration of Δ^12PGJ2 was applied to each defect. The collagen sponge was secured by placement of the titanium enclosure, which served as a rigid and fixed geometry cell exclusion barrier. Animals were sacrificed at 10 days and bone tissue sections were prepared for immunohistology to quantify growth factor expression. Tissue sections from treated animals were also analyzed morphometrically to assess de novo bone formation of the defect areas.
# Titanium enclosures were prepared by trimming and carving 0.1 mm thickness titanium plate to half cylindrical shape which had 8×1.5×2 mm in length, height, and width respectively. Both ends of the enclosures were sealed with surgical grade, self curing acrylic resin to form a closed half cylinder which is open only in the sagittal direction. The enclosures were then washed in an ultrasonic cleaning machine and autoclaved to sterilize and to create a titanium oxide surface prior to use.
# Twenty-eight male Wistar rats, aged 8 weeks and weighing 350-400 g were randomly separated into 4 groups that received varying doses of Δ^12PGJ2. Two rats were housed in each cage with free access to normal laboratory diet and water ad libitum. After 7 days of acclimatization, the animals were initially anesthetized intramuscularly with Sodium pentobarbital (Nembutal sodium solution, Abbott Laboratories, Chicago, Ill.) at a dosage of 75 mg/kg of body weight. The area of intended surgery was shaved and disinfected using 90% ethyl alcohol. After pupillary reflex was inhibited, a 3-cm incision was made through skin and muscle parallel to the long axis over the dorsal aspect of both left and right femoral bone. The periosteum was incised and removed from the surface of the bone, creating an exposed area of sufficient size to place the open face of the cylindrical enclosure directly on the bone surface. Subsequently, a 5×1.5 mm transcortical defect was made through the cortical bone into the bone marrow at the midshaft region using round and cylindrical steel burs and a low speed micromotor machine. A sufficiently sterile 0.9% saline solution was used as a coolant to avoid heat-induced necrosis of surrounding bone. The femoral bone on one side of the animal was randomly chosen for treatment with Δ^12PGJ2, and the contralateral side was used as a control. FIG. 1 depicts a schematic diagram of the titanium enclosure model.
# (§2) Δ^12PGJ2 (Cayman Chemical, Ann Arbor, Mich.) was diluted in 0.9% NaCl, pH 7.2, to the final concentration of 1×10^−3, 1×10^−5, 1×10^−7, and 1×10^−9 M. An absorbable collagen sponge (Colla-Tec Inc. Plainsboro, N.J.) 5×1.5 mm dimensions was used as a carrier. 10 μl of each Δ^12PGJ2 solution were loaded into the collagen carrier and then the carrier was placed inside the half cylindrical titanium enclosure. This provided a dosage of 3.0 μg, 30 ng, 0.3 ng, and 3 pg Δ^12PGJ2 in each of five standardized defects. The remaining volume inside the enclosure was filled with blood collected from the defect. The enclosure was inverted, placed over the defect, and stabilized by circumosseous wiring around the femoral bone using #010 orthodontic wire. […] The animals were monitored every day after surgery for indication of post-operative reactions. […]
# PDGF-A = experiment: Immunohistochemistry of PDGF-A expression in the titanium enclosure model; format: in vivo, rat; conditions: no concentration stated
# Procedure: as §1
# (§3) Δ^12PGJ2 (Cayman Chemical, Ann Arbor, Mich.) was diluted in 0.9% NaCl, pH 7.2, to the final concentration of 1×10^−3, 1×10^−5, 1×10^−7, and 1×10^−9 M. An absorbable collagen sponge (Colla-Tec Inc. Plainsboro, N.J.) 5×1.5 mm dimensions was used as a carrier. […] The animals were monitored every day after surgery for indication of post-operative reactions. […]
# (§4) The area and average intensity of positive immunostaining were measured using a microscope connected to a computerized video digital system (JAVA video analysis software, Jandel Scientific, Corte Madera, Calif.) at a magnification of 100×. […]
# [2] = test system: titanium implants placed in the rat femur; experiment: Titanium implant model of bone regeneration (bone height and width around implant); format: in vivo; conditions: for bone growth (height and width) around implant: versus control vehicle
# Procedure: In a second study, titanium implants were placed in the rat femurto mimic human dental implant placement, as described in Example 2. Bone healing and regeneration around the implants was assessed following treatment with implants loaded with Δ^12PGJ2.
# Six male Wistar rats were anesthetized as described in Example 1 for the placement of 4 titanium implants in each animal. Implants were fabricated from surgical grade titanium 1.5 mm in diameter, 2.5 mm in length with machined threads, cleaned bysonication and autoclaved prior to use. Implant sites were prepared with cooling using a dental high speed hand piece. One test and one control implant site were prepared for placement of 5 μl of test or control solution, followed by implant placement. Control implants comprised vehicle only (10% carboxymethylcellulose in normal saline). For test sites, 10^−3M or 10^−5M Δ^12PGJ2 was applied to the site following placement of the implant. Animals were monitored for 3 or 8 weeks following implantation.
# Femur bones were collected and fixed in 4% paraformaldehyde, 0.1 M phosphate buffer. Samples were cleared through sequential washings of graded alcohol followed by xylene. Bones were embedded in methacrylate and sectioned with a low speed diamond saw and stained with Toluidine Blue. Two different quantitative measurements were derived from each implant to measure the amount of bone regenerated around each implant. These measurements represent the bone height from the endosteal surface to the most apical bone contact area of the implant and the mean width of that same bone calculated using three measurement references, including the endosteal surface (ES), ES +130 microns, and ES +260 microns.
# PDGF-B = experiment: Immunohistochemistry of PDGF-B expression in the titanium enclosure model; format: in vivo, rat; conditions: for PDGF-B expression in the area of the defect: 10 days
# Procedure: as §1, §2
# as §4, with “100×. Three to five sections were analyzed for each femur and the data from all sections were pooled to reflect a mean value for each bone defect.” for “100×.”
# BMP-2 = experiment: Immunohistochemistry of BMP-2 expression in the titanium enclosure model; format: in vivo, rat; conditions: no concentration stated
# Procedure: as §1, §3, §4
# BMP-6 = experiment: Immunohistochemistry of BMP-6 expression in the titanium enclosure model; format: in vivo, rat; conditions: no concentration stated
# Procedure: as §1, §3, §4
# [3] = treated versus control injuries, 10^−3M or 10^−5M applied to site
smiles,measurement,setting,value
"CCCCCC(O)CC=C1C(=O)C=CC1C/C=C\CCCC(=O)O (stereo not drawn) [Δ^12PGJ2, Δ^12-13,14-dihydro-9-deoxy-Δ^9-prostaglandin D2]",bone volume following administration (FIG. 2),[1],increase in bone volume
same,percentage of new bone formation in cortical defect area (bone growth),"[1]; 30 ng dose in collagen sponge, 10 days",53 % volume
same,increase in total bone area following treatment,"[1]; 3.0 μg and 30 ng doses versus control, 10 days",~33%
same,percentage of new bone formation in cortical defect area (bone growth),"[1]; 3.0 μg dose in collagen sponge, 10 days",54 % volume
same,"percentage of new bone formation, dose dependence","[1]; doses 3 pg to 3.0 μg, 10 days",increased in a dose-dependent manner
same,PDGF-A induction,PDGF-A,potent and dose-dependent inducer
same,bone growth (height and width) around implant,[2]; 3 weeks after administration,Significantly increased bone growth
same,bone growth (height and width) around implant,[2]; 8 weeks after administration,Significantly increased bone growth
same,bone height around implant,[2]; [3],significantly increased
same,bone width around implant,[2]; [3],significantly increased
same,PDGF-B expression in the area of the defect,PDGF-B; 10^−3M,significant increase
same,PDGF-B expression in the area of the defect,PDGF-B; 10^−5M,significant increase
same,PDGF-B expression / induction (general statement),PDGF-B; no concentration stated,increase in PDGF-B expression; also recorded: potent and dose-dependent inducer
same,BMP-2 induction,BMP-2,potent and dose-dependent inducer
same,BMP-6 expression / induction,BMP-6,increase in BMP-6 expression; also recorded: potent and dose-dependent inducer
